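48-hour exposure; five concentrations; linearly interpolated endpoints. TGI is the concentration that stops growth completely.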 Where a SMILES comes first, the peptide text is derived from it. The star is where a group is joined. Boc = CC(C)(C)OC(=O)*
Legend:
Experiment in all cases: inhibition of tumour cell growth, NCI panel, 48 h
IGROV1 ovarian = test system: IGROV1 ovarian
HOP-62 NSCLC = test system: HOP-62 NSCLC
EKVX NSCLC = test system: EKVX NSCLC
UACC-257 melanoma = test system: UACC-257 melanoma
NCI-H460 lung = test system: NCI-H460 lung
UACC-62 melanoma = test system: UACC-62 melanoma
SK-OV-3 ovarian = test system: SK-OV-3 ovarian
SW-620 colon = test system: SW-620 colon
UO-31 renal = test system: UO-31 renal
M14 melanoma = test system: M14 melanoma

## CC(=O)C(=C(I)I)c1ccccc1
IGROV1 ovarian
  TGI: 54.7 µM
HOP-62 NSCLC
  TGI: 38.7 µM
EKVX NSCLC
  TGI: 49.3 µM
UACC-257 melanoma
  TGI: 32.7 µM
NCI-H460 lung
  TGI: > 100 µM
UACC-62 melanoma
  TGI: 51.4 µM
SK-OV-3 ovarian
  TGI: > 100 µM
SW-620 colon
  TGI: 38.7 µM
UO-31 renal
  TGI: 33.8 µM
M14 melanoma
  TGI: 31.6 µM

## COc1cc2c(cc1OCCCC(=O)Nc1cc(C(=O)Nc3cc(C(=O)NCCCN(C)C)n(C)n3)n(C)n1)N=CC1CCCN1C2=O (stereo not given)
IGROV1 ovarian
  TGI: 28.2 µM
HOP-62 NSCLC
  TGI: 68.7 µM
EKVX NSCLC
  TGI: > 100 µM
UACC-257 melanoma
  TGI: 35.2 µM
NCI-H460 lung
  TGI: > 100 µM
UACC-62 melanoma
  TGI: 57.3 µM
SK-OV-3 ovarian
  TGI: > 100 µM
SW-620 colon
  TGI: 29.2 µM
UO-31 renal
  TGI: 30.4 µM
M14 melanoma
  TGI: 33.8 µM

## COc1ccc2nc3c([N+](=O)[O-])ccc4c3c(c2c1)NCCN4C
IGROV1 ovarian
  TGI: 4.52 µM
HOP-62 NSCLC
  TGI: 3.16 µM
EKVX NSCLC
  TGI: 6.61 µM
UACC-257 melanoma
  TGI: 10.1 µM
NCI-H460 lung
  TGI: 1.48 µM
UACC-62 melanoma
  TGI: 2.88 µM
SK-OV-3 ovarian
  TGI: 9.23 µM
SW-620 colon
  TGI: 4.76 µM
UO-31 renal
  TGI: 2.82 µM
M14 melanoma
  TGI: 2.8 µM

## CN(C)Cc1cc(C(=O)O)cc(CN(C)C)c1O
IGROV1 ovarian
  TGI: > 100 µM
HOP-62 NSCLC
  TGI: > 100 µM
EKVX NSCLC
  TGI: > 100 µM
UACC-257 melanoma
  TGI: > 100 µM
NCI-H460 lung
  TGI: > 100 µM
UACC-62 melanoma
  TGI: > 100 µM
SK-OV-3 ovarian
  TGI: > 100 µM
SW-620 colon
  TGI: > 100 µM
UO-31 renal
  TGI: > 100 µM
M14 melanoma
  TGI: > 100 µM

## COc1nc2c(c(=O)n1C)N[C@@H]1[C@@H](O)[C@H](O)CO[C@@H]1N2
IGROV1 ovarian
  TGI: > 100 µM
HOP-62 NSCLC
  TGI: > 100 µM
EKVX NSCLC
  TGI: > 100 µM
UACC-257 melanoma
  TGI: > 100 µM
NCI-H460 lung
  TGI: > 100 µM
UACC-62 melanoma
  TGI: > 100 µM
SK-OV-3 ovarian
  TGI: > 100 µM
SW-620 colon
  TGI: > 100 µM
UO-31 renal
  TGI: > 100 µM
M14 melanoma
  TGI: > 100 µM

## CC(NC(=O)C(NC(=O)OC(C)(C)C)C(C)C)C(=O)NCC(=O)O (stereo not drawn) (Boc-Val-Ala-Gly-OH; configuration not given here)
IGROV1 ovarian
  TGI: > 100 µM
HOP-62 NSCLC
  TGI: > 100 µM
EKVX NSCLC
  TGI: > 100 µM
UACC-257 melanoma
  TGI: > 100 µM
NCI-H460 lung
  TGI: > 100 µM
UACC-62 melanoma
  TGI: > 100 µM
SK-OV-3 ovarian
  TGI: > 100 µM
SW-620 colon
  TGI: > 100 µM
UO-31 renal
  TGI: > 100 µM
M14 melanoma
  TGI: > 100 µM

## CCCCCc1c(CCCC)c(=O)[nH]c2cc(CNCC(OC)OC)ccc12
IGROV1 ovarian
  TGI: 29.6 µM
HOP-62 NSCLC
  TGI: 33.5 µM
EKVX NSCLC
  TGI: 31.3 µM
UACC-257 melanoma
  TGI: 16.2 µM
NCI-H460 lung
  TGI: 23.9 µM
UACC-62 melanoma
  TGI: 12.2 µM
SK-OV-3 ovarian
  TGI: 32.3 µM
SW-620 colon
  TGI: 16.3 µM
UO-31 renal
  TGI: 26.4 µM
M14 melanoma
  TGI: 8.1 µM

## COC(=O)C(Cc1ccccc1)NC(=O)CNC(=O)CSc1nnc(COc2ccc(Cl)cc2)n1-c1ccccc1 (stereo not given)
IGROV1 ovarian
  TGI: 29.1 µM
HOP-62 NSCLC
  TGI: 35.3 µM
EKVX NSCLC
  TGI: 39.9 µM
UACC-257 melanoma
  TGI: 28.8 µM
NCI-H460 lung
  TGI: 32.2 µM
UACC-62 melanoma
  TGI: 28.6 µM
SK-OV-3 ovarian
  TGI: 28.6 µM
SW-620 colon
  TGI: 47 µM
UO-31 renal
  TGI: 3.28 µM
M14 melanoma
  TGI: 31.7 µM

## COC(=O)/C=C1/OC(c2ccccc2)=C(Cl)C1=O
IGROV1 ovarian
  TGI: 55.8 µM
HOP-62 NSCLC
  TGI: > 58 µM
EKVX NSCLC
  TGI: 44.5 µM
UACC-257 melanoma
  TGI: 66 µM
NCI-H460 lung
  TGI: > 77.6 µM
UACC-62 melanoma
  TGI: 38.8 µM
SK-OV-3 ovarian
  TGI: > 100 µM
SW-620 colon
  TGI: 41.6 µM
UO-31 renal
  TGI: 49.2 µM
M14 melanoma
  TGI: 35.2 µM

Reference: PubChem BioAssay (NCI)
